Test results taken from patent US11992494B2, “Cyclopentathiophene carboxamide derivatives as platelet activating factor receptor antagonists” (Boehringer Ingelheim International GmbH, priority 2021, dated 2024).

Target: PAFR (Homo sapiens, UniProt P25105)
Assay: cellular HTRF IP1 assay: inhibition of PAFR activation by PAF C-16 ligand (endpoint assay)
Format: cell-based
Parameters: expressed in transfected cells; host or cells: HEK293
Protocol: The ability of compounds of formula (I) to inhibit the activation of the PAF receptor (PAFR) by the PAF C-16 ligand (PAF) is determined using the following cellular HTRF IP1 assay (IP1 Gq assay kit from Cisbio, Cat. no.: 62IP1APEJ) in assay buffer (1×HBSS, 20 mM Hepes, pH 7.4, 50 mM LiCl and containing 0.1% (w/v) BSA):
Evaluation of the Inhibition of PAFR Activation Using an Endpoint Assay
HEK293 cells overexpressing human PAFR (produced in-house) are seeded into a Poly-D-Lysine coated 384 well white cell culture microtiter assay plate with lid (15.000 cells per well). Subsequently, the plates are incubated over night at 37° C./5% CO2. On the next day, cells are being washed and subsequently, various concentrations of the test compounds (compounds in 100% DMSO; final concentration of DMSO in wells is 1%) are added to the assay plate via Echo 555 acoustic liquid handler. Plates are then incubated with lid for 90 minutes at 37° C./5% CO2. Thereafter, PAF ligand (Cayman Chemical Company, Item no.: 60900) is added at a final concentration of 11 nM. Plates are then incubated with lid for 60 minutes at 37° C./5% CO2. Then, 5 μl per well of Anti-IP1-Antibody-Cryptate solution and 5 μl per well of IP1-d2 solution are added to all wells of the plate and the plate is incubated for another 60 minutes light protected at room temperature. The emissions at 620 nm and 665 nm (Excitation wavelength: 320 nm) are measured using an Envision Reader (PerkinElmer).

[1] = HEK293 cells overexpressing human PAFR, PAF ligand 11 nM, Table 2
[2] = S-bepafant and its methylated derivatives in the above-mentioned assay
[3] = dedicated head-to-head comparison assay run: cyclopropylene vs di-methyl / cyclobutylene analogues

Sequence of PAFR (P25105 whole entry): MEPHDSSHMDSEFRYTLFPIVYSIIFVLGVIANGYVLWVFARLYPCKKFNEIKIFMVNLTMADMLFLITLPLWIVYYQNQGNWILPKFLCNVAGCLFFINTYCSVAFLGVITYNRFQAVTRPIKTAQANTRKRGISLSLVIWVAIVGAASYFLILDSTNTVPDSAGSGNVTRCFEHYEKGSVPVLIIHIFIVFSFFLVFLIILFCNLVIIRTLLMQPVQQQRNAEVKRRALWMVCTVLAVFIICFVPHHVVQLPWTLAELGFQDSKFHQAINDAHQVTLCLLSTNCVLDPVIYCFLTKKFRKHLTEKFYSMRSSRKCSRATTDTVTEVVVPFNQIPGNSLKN

| IC50 [1] [nM] | IC50 [2] [nM] | IC50 [3] [nM] | SMILES |
| --- | --- | --- | --- |
| 1.3 |  |  | Cc1nnc2n1-c1sc3c(c1C(c1ccccc1Cl)=NC21CC1)C[C@H](C(=O)N(C)C1CCCCC1)C3 [Example 44] |
| 6.6 |  |  | Cc1nnc2n1-c1sc3c(c1C(c1ccccc1Cl)=NC21CC1)C[C@H](C(=O)NC1CCc2cnn(C)c2C1)C3 (stereo partly drawn) [Example 54] |
| 5.5 |  |  | Cc1nnc2n1-c1sc3c(c1C(c1ccccc1Cl)=NC21CC1)C[C@H](C(=O)NC1CC1)C3 [Example 74] |
| 4.3 |  |  | Cc1nnc2n1-c1sc3c(c1C(c1ccccc1Cl)=NC21CC1)C[C@H](C(=O)N[C@@H]1COCC(F)(F)C1)C3 [Example 110] |
| 0.9 |  |  | Cc1nnc2n1-c1sc3c(c1C(c1ccccc1Cl)=NC21CC1)C[C@H](C(=O)NC1Cc2ccccc2C1)C3 [Example 31] |
| 1.9 |  |  | Cc1nnc2n1-c1sc3c(c1C(c1ccccc1Cl)=NC21CC1)C[C@H](C(=O)NCC1CC1)C3 [Example 68] |
| 1.7 |  | 2 | Cc1nnc2n1-c1sc3c(c1C(c1ccccc1Cl)=NC21CC1)C[C@H](C(=O)NC1CCC1)C3 [Example 7, (13′S)-9′-(2-chlorophenyl)-N-cyclobutyl-3′-methyl-16′-thia-2′,4′,5′,8′-tetraazaspiro-[cyclopropane-1,7′-tetracyclo[8.6.0.0^2,6.0^11,15]-hexadecane]-1′(10′),3′,5′,8′,11′(15′)-pentaene-13′-carboxamide] |
| 3.4 |  |  | Cc1nnc2n1-c1sc3c(c1C(c1ccccc1Cl)=NC21CC1)C[C@H](C(=O)NC1(C)CC1)C3 [Example 18] |
| 1.8 |  |  | Cc1nnc2n1-c1sc3c(c1C(c1ccccc1Cl)=NC21CC1)C[C@H](C(=O)N[C@H]1CC[C@@H](C(F)(F)F)CC1)C3 [Example 52] |
| 3.7 |  |  | Cc1nnc2n1-c1sc3c(c1C(c1ccccc1Cl)=NC21CC1)C[C@H](C(=O)NC1COCC(F)(F)C1)C3 (stereo partly drawn) [Example 43] |
| 7.1 |  |  | CO[C@@H]1CC[C@H]1NC(=O)[C@@H]1Cc2sc3c(c2C1)C(c1ccccc1Cl)=NC1(CC1)c1nnc(C)n1-3 [Example 57] |
| 2.8 |  |  | Cc1nnc2n1-c1sc3c(c1C(c1ccccc1Cl)=NC21CC1)C[C@H](C(=O)NC1CCC(F)(F)CC1)C3 [Example 118] |
| 1.5 |  |  | Cc1nnc2n1-c1sc3c(c1C(c1ccccc1Cl)=NC21CC1)C[C@H](C(=O)N(C)C1CCCCCC1)C3 [Example 75] |
| 12 |  | 9.7 | Cc1nnc2n1-c1sc3c(c1C(c1ccccc1Cl)=NC21CC1)C[C@H](C(=O)NC1CCOCC1)C3 [Example 51] |
| 2 |  |  | Cc1nnc2n1-c1sc3c(c1C(c1ccccc1Cl)=NC21CC1)C[C@H](C(=O)N[C@H]1CCC(F)(F)C1)C3 [Example 24] |
| 6.9 |  |  | Cc1nnc2n1-c1sc3c(c1C(c1ccccc1Cl)=NC21CC1)C[C@H](C(=O)N(C)[C@H]1CCCC[C@H]1O)C3 [Example 102] |
| 6.7 |  |  | Cc1nnc2n1-c1sc3c(c1C(c1ccccc1Cl)=NC21CC1)C[C@H](C(=O)N(C)[C@@H]1CCOC1)C3 [Example 48] |
| 17 |  |  | Cc1nnc2n1-c1sc3c(c1C(c1ccccc1Cl)=NC21CC1)C[C@H](C(=O)N[C@@H]1CCOC1)C3 [Example 95] |

Further lines, the molecule ahead of its results:

| SMILES | IC50 [1] [nM] | IC50 [2] [nM] | IC50 [3] [nM] |
| --- | --- | --- | --- |
| Cc1nnc2n1-c1sc3c(c1C(c1ccccc1Cl)=NC21CC1)C[C@H](C(=O)N1CCO[C@@H](C)C1)C3 [Example 106, (13′S)-9′-(2-chlorophenyl)-3′-methyl-13′-[(2S)-2-methylmorpholine-4-carbonyl]-16′-thia-2′,4′,5′,8′-tetraazaspiro[cyclopropane-1,7′-tetracyclo-[8.6.0.0^2,6.0^11,15]hexadecane}-1′(10′),3′,5′,8′,11′(15′)-pentaene] | 7.5 |  |  |
| Cc1nnc2n1-c1sc3c(c1C(c1ccccc1Cl)=NC21CC1)C[C@H](C(=O)N1CC2(CCCO2)C1)C3 [Example 126, (13′S)-9′-(2-chlorophenyl)-3′-methyl-13′-{5-oxa-2-azaspiro[3.4]octane-2-carbonyl}-16′-thia-2′,4′,5′,8′-tetraazaspiro[cyclopropane-1,7′-tetracyclo[8.6.0.0^2,6.0^11,15]hexadecane]-1′(10′),3′,5′,8′,11′(15′)-pentaene] | 9.4 |  |  |
| Cc1nnc2n1-c1sc3c(c1C(c1ccccc1Cl)=N[C@H]2C)C[C@H](C(=O)N1CCOCC1)C3 [comparative example 1a, reference compound] |  | 6.9 |  |
| Cc1nnc2n1-c1sc3c(c1C(c1ccccc1Cl)=NC21CC1)C[C@H](C(=O)NC1(C)CCOCC1)C3 [Example 45] | 12 |  |  |
| Cc1nnc2n1-c1sc3c(c1C(c1ccccc1Cl)=N[C@@H]2C)C[C@H](C(=O)N1CCOCC1)C3 [comparative example 1b, reference compound] |  | > 1000 |  |
| Cc1nnc2n1-c1sc3c(c1C(c1ccccc1)=NC21CC1)C[C@H](C(=O)N1CCOCC1)C3 [Example 120, (13′S)-3′-methyl-13′-(morpholine-4-carbonyl)-9′-phenyl-16′-thia-2′,4′,5′,8′-tetraazaspiro[cyclopropane-1,7′-tetracyclo[8.6.0.0^2,6.0^11,15]hexadecane]-1′(10′),3′,5′,8′,11′(15′)-pentaene] | 14 |  |  |
| Cc1nnc2n1-c1sc3c(c1C(c1ccccc1Cl)=NC21CC1)C[C@H](C(=O)N1CCOCC12CC2)C3 [Example 127, (13′S)-9′-(2-chlorophenyl)-3′-methyl-13′-{7-oxa-4-azaspiro[2.5]octane-4-carbonyl}-16′-thia-2′,4′,5′,8′-tetraazaspiro[cyclopropane-1,7′-tetracyclo[8.6.0.0^2,6.0^11,15]hexadecane]-1′(10′),3′,5′,8′,11′(15′)-pentaene] | 5.8 |  |  |
| COc1cc(C2(NC(=O)[C@@H]3Cc4sc5c(c4C3)C(c3ccccc3Cl)=NC3(CC3)c3nnc(C)n3-5)CC2)ccn1 [Example 85] | 3.9 |  |  |
| Cc1nnc2n1-c1sc3c(c1C(c1ccccc1Cl)=NC2(C)C)C[C@H](C(=O)N[C@@H]1CCC(F)(F)C1)C3 [reference compound] |  |  | 7.7 |
| Cc1nnc2n1-c1sc3c(c1C(c1ccccc1Cl)=NC21CC1)C[C@H](C(=O)N[C@@H]1C[C@H]1c1ccccc1)C3 [Example 60] | 1.3 |  |  |
| Cc1nnc2n1-c1sc3c(c1C(c1ccccc1Cl)=NC21CC1)C[C@H](C(=O)N(C)[C@H]1c2ccccc2CC[C@@H]1O)C3 [Example 86] | 4 |  |  |
| Cc1nnc2n1-c1sc3c(c1C(c1ccccc1Cl)=NC21CC1)C[C@H](C(=O)N[C@@H]1c2ccccc2C[C@@H]1O)C3 [Example 50] | 2.4 |  |  |
| Cc1nnc2n1-c1sc3c(c1C(c1ccccc1Cl)=NC21CC1)C[C@H](C(=O)NC1CCc2ccc(F)cc21)C3 (stereo partly drawn) [Example 22] | 0.6 |  |  |
| Cc1nnc2n1-c1sc3c(c1C(c1ccccc1Cl)=NC21CC1)C[C@H](C(=O)N[C@H]1CCc2ccccc21)C3 [Example 82] | 1.5 |  |  |
| Cc1noc(C)c1NC(=O)[C@@H]1Cc2sc3c(c2C1)C(c1ccccc1Cl)=NC(C)(C)c1nnc(C)n1-3 [reference compound] |  |  | 39 |
| Cc1ccccc1C1=NC2(CC2)c2nnc(C)n2-c2sc3c(c21)C[C@H](C(=O)N1CCOCC1)C3 [Example 8, (13′S)-3′-methyl-9′-(2-methylphenyl)-13′-(morpholine-4-carbonyl)-16′-thia-2′,4′,5′,8′-tetraazaspiro[cyclopropane-1,7′-tetracyclo[8.6.0.0^2,6.0^11,15]hexadecane]-1′(10′),3′,5′,8′,11′(15′)-pentaene] | 8.4 |  |  |
| Cc1nnc2n1-c1sc3c(c1C(c1ccccc1Cl)=NC21CC1)C[C@H](C(=O)NCCOC(F)(F)F)C3 [Example 67] | 1.7 |  |  |
| Cc1nnc2n1-c1sc3c(c1C(c1ccccc1Cl)=NC21CC1)C[C@H](C(=O)N1CCC(F)(F)CC1)C3 [Example 129, (13′S)-9′-(2-chlorophenyl)-13′-(4,4-difluoropiperidine-1-carbonyl)-3′-methyl-16′-thia-2′,4′,5′,8′-tetraazaspiro[cyclopropane-1,7′-tetracyclo[8.6.0.0^2,6.0^11,15]hexadecane]-1′(10′),3′,5′,8′,11′(15′)-pentaene] | 2.5 |  | 2.6 |
| Cc1nnc2n1-c1sc3c(c1C(c1ccccc1Cl)=NC21CC1)C[C@H](C(=O)N1C[C@@H](C)O[C@@H](C)C1)C3 [Example 13] | 4.8 |  |  |
| Cc1nnc2n1-c1sc3c(c1C(c1cc(C#N)ccc1Cl)=NC21CC1)C[C@H](C(=O)N1CCOCC1)C3 [Example 2, 4-chloro-3-[(13′S)-3′-methyl-13′-(morpholine-4-carbonyl)-16′-thia-2′,4′,5′,8′-tetraazaspiro[cyclopropane-1,7′-tetracyclo[8.6.0.0^2,6.0^11,15]hexadecane]-1′(10′),3′,5′,8′,11′(15′)-pentaen-9′-yl]benzonitrile] | 83 |  |  |
| Cc1nnc2n1-c1sc3c(c1C(c1ccccc1Cl)=NC21CC1)C[C@H](C(=O)NC1CCc2cc(F)ccc21)C3 (stereo partly drawn) [Example 61] | 0.6 |  | 1.1 |
| Cc1nnc2n1-c1sc3c(c1C(c1ccccc1Cl)=NC21CC1)C[C@H](C(=O)NC1(c2cncnc2)CC1)C3 [Example 117] | 28 |  |  |
| Cc1nnc2n1-c1sc3c(c1C(c1ccccc1Cl)=NC21CC1)C[C@H](C(=O)N[C@H]1CCc2ccccc2C1)C3 [Example 58] | 0.4 |  |  |
